# Experimental data from patent US20130090476A1, “Thiazolylpiperidine Derivatives as Fungicides” (priority 2009, published 2013).
# Marks after values point to notes of the source that are not given here.
# Experiments:
# [1] = system: Phytophthora infestans; assay: whole plant or invertebrate; assay type: in vivo; settings: in Solanum lycopersicum, 168 h, read-out: efficacy
# [2] = logP determination by HPLC (EEC Directive 79/831 Annex V.A8), LC-MS
# [3] = pH 2.7
# [4] = pH 2.7, log P (pH2.7), pH 2.7, value given in the preparation text
# [5] = pH 2.7, logP, * acidic range, pH 2.7, 0.1% aqueous formic acid/acetonitrile
SMILES,logP [3],further results
"Cc1cc(C(F)(F)F)nn1CC(=O)N1CCC(c2nc(CSc3cccc4ccccc34)cs2)CC1 [Compound I-1, 2-[5-Methyl-3-(trifluoromethyl)-1H-pyrazol-1-yl]-1-(4-{4-[(1-naphthylsulphanyl)methyl]-1,3-thiazol-2-yl}piperidin-1-yl)ethanone]",–,"pest or weed control at 500 ppm [1]: ≥ 70%; chromatographic logP [2, 4]: 4.33; chromatographic logP [2, 5]: 4.33"
"Cc1cc(C(F)(F)F)nn1CC(=O)N1CCC(c2nc(CSC34CC5CC(CC(C5)C3)C4)cs2)CC1 [Compound I-2, 1-[4-(4-{[(3S,5S,7S)-Adamantan-1-ylsulphanyl]methyl}-1,3-thiazol-2-yl)piperidin-1-yl]-2-[5-methyl-3-(trifluoromethyl)-1H-pyrazol-1-yl]ethanone]",5.21*,log P (pH2.7) [3]: 5.21
"Cc1cc(C(F)(F)F)nn1CC(=O)N1CCC(c2nc(CSC3CCCCC3)cs2)CC1 [Compound I-3, 1-(4-{4-[(Cyclohexylsulphanyl)methyl]-1,3-thiazol-2-yl}piperidin-1-yl)-2-[5-methyl-3-(trifluoromethyl)-1H-pyrazol-1-yl]ethanone]",–,"pest or weed control at 500 ppm [1]: ≥ 70%; chromatographic logP [2, 4]: 4.3; chromatographic logP [2, 5]: 4.3"
"Cc1cc(C(F)(F)F)nn1CC(=O)N1CCC(c2nc(CS(=O)(=O)C34CC5CC(CC(C5)C3)C4)cs2)CC1 [Compound I-6, 1-[4-(4-{[(3S,5S,7S)-Adamantan-1-ylsulphonyl]methyl}-1,3-thiazol-2-yl)piperidin-1-yl]-2-[5-methyl-3-(trifluoromethyl)-1H-pyrazol-1-yl]ethanone]",3.4*,log P (pH2.7) [3]: 3.42
"Cc1cc(C(F)(F)F)nn1CC(=O)N1CCC(c2nc(CS(=O)(=O)C3CCCCC3)cs2)CC1 [Compound I-7, 1-(4-{4-[(Cyclohexylsulphonyl)methyl]-1,3-thiazol-2-yl}piperidin-1-yl)-2-[5-methyl-3-(trifluoromethyl)-1H-pyrazol-1-yl]ethanone]",–,"pest or weed control at 500 ppm [1]: ≥ 70%; chromatographic logP [2, 4]: 2.9; chromatographic logP [2, 5]: 2.9; chromatographic logP ([2]; pH 7.8, logP, ** neutral range, pH 7.8, 0.001 molar aqueous ammonium bicarbonate/acetonitrile): 2.87"
Cc1ccc([N+](=O)[O-])cc1NC(=O)N1CCC(c2nc(CSc3nnnn3-c3ccccc3)cs2)CC1 [Compound I-18],3.09*,–
Cc1ccc(Cl)cc1NC(=O)N1CCC(c2nc(CSc3nnnn3-c3ccccc3)cs2)CC1 [Compound I-24],3.43*,–
O=C(Cn1nc(C(F)F)cc1C(F)F)N1CCC(c2nc(CS(=O)(=O)c3nnnn3-c3ccccc3)cs2)CC1 [Compound I-29],2.97*,–
COc1ccc(C)cc1NC(=O)N1CCC(c2nc(CSc3nnnn3-c3ccccc3)cs2)CC1 [Compound I-33],3.5*,–
O=C(Cn1nc(C(F)(F)F)cc1C(F)(F)F)N1CCC(c2nc(CSc3nnnn3-c3ccccc3)cs2)CC1 [Compound I-34],3.8*,–
O=C(Cn1nc(C(F)F)cc1C(F)F)N1CCC(c2nc(CSc3nnnn3-c3ccccc3)cs2)CC1 [Compound I-35],3.11*,–
O=C(Cc1cc(Cl)ccc1Cl)N1CCC(c2nc(CSc3nnnn3-c3ccccc3)cs2)CC1 [Compound I-46],3.8*,–
O=C(Nc1cc(Cl)ccc1Cl)N1CCC(c2nc(CSc3nnnn3-c3ccccc3)cs2)CC1 [Compound I-49],3.95*,–
Cc1ccc(F)c(NC(=O)N2CCC(c3nc(CSc4nnnn4-c4ccccc4)cs3)CC2)c1 [Compound I-60],3.28*,–
Cc1ccc(C)c(NC(=O)N2CCC(c3nc(CSC45CC6CC(CC(C6)C4)C5)cs3)CC2)c1 [Compound I-72],5.38*,–
Cc1ccc(C)c(NC(=O)N2CCC(c3nc(CSc4nnnn4-c4ccccc4)cs3)CC2)c1 [Compound I-84],3.26*,–
Cc1ccc(Cl)c(NC(=O)N2CCC(c3nc(CSc4nnnn4-c4ccccc4)cs3)CC2)c1 [Compound I-87],3.72*,–
Cc1ccc(C)c(NC(=S)N2CCC(c3nc(CSc4nnnn4-c4ccccc4)cs3)CC2)c1 [Compound I-98],3.52*,–
